Laboratory results published in patent US7790188B2, “Antifungal protein and usage thereof” (Food Industry Research and Development Institute, priority 2006, dated 2010).

Columns and labels:
P. variotii BCRC 33174 = assay: Antifungal activity assay (pathogen antagonistic dosage assay, paper discs on PDA plate); assay type: cell-based, Paecilomyces variotii; conditions: 28° C.
Method: (§1) The fungal strains for testing the antifungal activities of Monascus strains or isolated and purified antifungal protein, MAFP1, are selected from Helminthosporium panici BCRC 35004 and Paecilomyces variotii BCRC 33174. The fungal strains were inoculated on PDA (Potato Dextrose Agar, Difico Co.) culture plate and cultured at 25° C. for 7 to 14 days. Pathogen antagonistic dosage assays were conducted to confirm the antifungal activity of the purified MAFP1 protein. Fungal blocks of pathogenic fungi (P. variotii BCRC 33174 and H. panici BCRC 35004) were place in the center of PDA plates. 6 mm paper discs with different concentrations of MAFP1 solutions (containing 0 to 0.8 μg of purified MAFP1 protein) were placed surround the fungal block of pathogenic fungus. The plates were cultured at 28° C. and the growth inhibitions of the pathogenic fungi were observed.

H. panici BCRC 35004 = assay: as above; assay type: cell-based, Helminthosporium panici; conditions: 28° C.
Method: as §1

[1] = discs with 0 to 0.8 μg MAFP1, PDA plate

## MAFP1: Antifungal protein of about 7 kDa purified from M. pilosus BCRC 38093 culture broth; mature form, SEQ ID NO: 3 (LSKYGGECSLQHNTCTYLKGGKNQVVHCGSAANQKCKSDRHHCEYDEHHKTVNCQTPV; listed as Monascus pilosus)
P. variotii BCRC 33174; 0.2 μg of purified MAFP1 protein on 6 mm paper disc, PDA plate
  growth inhibition of P. variotii: can significantly inhibit the growth
P. variotii BCRC 33174; [1]
  dependence of growth inhibition of pathogenic fungus on MAFP1 concentration: the higher the MAFP1 concentration, the stronger the inhibitory activity
H. panici BCRC 35004; 0.4 μg of purified MAFP1 protein on 6 mm paper disc, PDA plate
  growth inhibition of H. panici: can significantly inhibit the growth
H. panici BCRC 35004; [1]
  dependence of growth inhibition of pathogenic fungus on MAFP1 concentration: the higher the MAFP1 concentration, the stronger the inhibitory activity
